As a reminder, the melting point is the temperature of the solid-liquid transition. Take `Cc1nc(N2CCN(Cc3ccc(F)cc3)C2=O)sc1C(=O)NCc1cnccn1`: the melting point lay in the range of 185 to 187 °C. To `CNc1ccc(-n2nc3c4ccccc4[nH]cc-3c2=O)cc1` belongs 302 to 304 °C; to `O=C(O)Cc1ccc(Br)cc1[N+](=O)[O-]`, 166 to 168 °C. In the case of `CC(=O)SCC(=Cc1ccc(-c2ccccc2)cc1)C(=O)NCCC(=O)OCc1ccccc1` it was 76 °C; in that of `CCOC(=O)C1C=Nc2c(c(F)cc3cc(C(=O)N(C)Cc4ccccc4)cnc23)C1=O` (stereo not drawn), 201 to 203 °C. In turn, `CN(C)C1CCc2[nH]c3cccc(F)c3c2C1` (stereo not drawn) came in with a melting point of 166 to 168 °C.

With `COc1cc([N+](=O)[O-])ccc1S(=O)(=O)Nc1ccccc1C`, the melting point lay in the range of 127 to 129 °C. To `O=S(=O)(Nc1ccc2c(OCc3cccc(Br)c3)cccc2c1)C(F)(F)F` belongs 113 to 115 °C. In the case of `CCOc1c(C(=O)c2cccs2)cnc2c1cnn2Cc1ccco1` it was 85 to 87 °C; in that of `O=C(Oc1c(F)c(F)c(F)c(F)c1F)c1ccccn1`, 62 to 64 °C; in that of `Cc1c(C)c2c(c(C)c1NC(=O)CC(C)(C)C)C(c1ccc(C(C)O)cc1)CO2` (stereo not drawn), 144 to 145 °C.

In turn, `CC(C)N(CCN1C(=O)/C(=N/NC(=O)Nc2ccccc2)c2ccccc21)C(C)C` gave a melting point of 157 to 159 °C. Regarding `O=C(CBr)c1csc(C(F)(F)F)n1`, the melting point lay in the range of 36 to 37 °C. In the case of `O=Cc1c(F)ccc(Cl)c1Cl` it was 55 to 57 °C; in that of `CN(CCCc1cc(F)c2ncc(C(=O)NCc3ccc(Cl)cc3)c(O)c2c1)Cc1ccccc1`, 161 to 162 °C; in that of `COC(=O)C1=CCC(=NON)C=C1`, 170 to 172 °C. As for `Cc1ccc(C(=S)c2ccc3n2CCCC3C#N)cc1` (stereo not drawn), the melting point lay within 118 to 119 °C. To `O=C(O)[C@@H](CCCN1C(=O)c2ccccc2C1=O)NS(=O)(=O)c1ccc(Oc2ccccc2)cc1` belongs 139 to 140 °C. In turn, `O=C(O)CNc1nccc(-n2cc(C3c4ccccc4C=Cc4ccccc43)c(=S)[nH]c2=O)n1` registered a melting point of 208 °C.

Turning to `COC(=O)c1ccc2c(c1)CC(=O)O2`, the melting point lay in the range of 102 to 103 °C. To `O=C(O)[C@@H]1C[C@H](SCc2ccc(C3CCCCC3)cc2)CN1` belongs 209 to 210 °C; to `CS(=O)(=O)Nc1ccc(CCCOCCCCCCNCC(O)c2cc(O)cc(O)c2)cc1` (stereo not drawn), 66 to 69 °C. `CCOc1c(C=NO)c(=O)n(C)c(=O)n1C`: the melting point was 115 °C. To `CCNC(=O)c1ccc(F)c2c1CC(N(CCCc1c[nH]c3ccc(F)cc13)C1CCC1)CO2` (stereo not drawn) belongs 130 °C; to `CCOc1cc(OC2CCN(C)CC2)c(F)c([C@H](Nc2ccc(C(=N)N)cc2)C(=O)O)c1`, 267 °C; to `CCCCCCCC(=O)OCCc1c(-c2ccccc2)nc(N)n2ncnc12`, 89 to 91 °C. To `CC(=NOCCOc1ccc(CC2SC(=O)NC2=O)cc1)c1ccc(S(=O)(=O)c2ccncc2)cc1` (stereo not drawn) belongs 213 to 215 °C; to `COC(=O)CCCCC(=O)c1ccc(F)cc1`, 41 to 43 °C. To `Cc1cc(C)c2cccc(OCc3c(Cl)ccc(S(=O)(=O)N4CCC[C@H]4C(=O)NCCCN(C)C(=O)OC(C)(C)C)c3Cl)c2n1` belongs 80 °C; to `c1c2c(cc3c1CCC3)CCC2`, 35 to 36.2 °C; to `CCCCCCC(c1ccc2[nH]c(-c3ccc(F)cc3)nc2c1)n1ccnc1` (stereo not drawn), 122 °C.

Compound `CCOc1c(C)c(N2CCN(c3ccc(OC)cc3)CC2)c(C)c2c1OC(C)(C)C2` displayed a melting point of 151 to 153 °C.

As for `Cc1cc(O)nc2nc(SCc3ccccc3)nn12`, the melting point was 219 to 220 °C. To `N#Cc1ccc(Sc2cc(Cl)ccc2Cl)c(S(=O)(=O)N2CCNCC2)c1` belongs 156 to 162 °C; to `N#CCOc1ccc(Cl)cc1-n1nncc1-c1cccc(C(F)(F)F)c1`, 145 to 146 °C; to `COc1cc2c(cc1OC)SCCC(C(=O)N1CCN(C(=O)c3cc(OC)c(OC)c(OC)c3)CC1)=C2`, 113 °C. In the case of `O=C(OCc1ccc([N+](=O)[O-])cc1)N1CCC(O)CC1` it was 91.5 to 94 °C; in that of `CCN1CCCOc2cc(Nc3ncc(Cl)c(N[C@@H]4CCCC[C@H]4NS(C)(=O)=O)n3)ccc21`, 108 to 110 °C; in that of `CCCCCCCCCCCCCCCCCCCCCCOC(=O)C(C)O` (stereo not drawn), 57 °C. To `CSc1nc(C)ccc1NC(=O)CSc1nc2ccccc2[nH]1` belongs 192 to 193 °C; to `Cn1cc(-c2ccc(F)cc2)c(C(=O)O)n1`, 146 to 147 °C; to `C=Cc1ccc(CN2CCNCCN(Cc3ccc(C=C)cc3)CC2)cc1`, 162 to 164 °C. As to `CN1CCN(c2cc(Cl)cc3c2c(=O)n(CC2CCCCC2)c(=O)n3Cc2ccccc2)CC1`, the melting point fell in the range of 163 to 169 °C. To `COc1cc(COc2nn(-c3ccccc3)cc2/C=C/c2csc(C)n2)ccc1OCc1nc(-c2ccc(CC(=O)O)cc2)oc1C` belongs 181 to 182 °C; to `CCOC(=O)CCc1cn(Cc2ccc(OCc3coc(-c4ccccc4)n3)cc2)nc1OCC`, 80 to 81 °C.

As for `Nc1cc(=O)n2cc(Cl)c(C(c3c(F)ccc(F)c3F)S(=O)(=O)CCC(F)(F)F)cc2n1` (stereo not drawn), the melting point stood at 247 °C. Turning to `Cc1ccc(-c2ccc3c(c2)C=C(C(=O)Nc2ccc(CN4CCN(CCO)CC4)cc2)CC3)cc1`, the melting point was in the range of 185 to 187 °C.

`O=c1c2c[nH]c3ccccc3c-2nn1-c1ccccc1`: the melting point fell in the range of 326 to 328 °C. In the case of `CC(=O)NCCNCc1ccc(-c2cc3ncnc(Nc4ccc5[nH]ccc5c4)c3s2)cc1` it was 142 to 155 °C; in that of `Clc1ccc(CN2CCCCC2)cn1`, 48 °C; in that of `CN(C1CCN(Cc2cnc3ccccc3c2)CC1)S(=O)(=O)c1ccc(Nc2nccc(Nc3ccc(F)cc3)n2)cc1`, 125 to 127 °C. To `O=C(O)C=C(c1ccccc1)c1ccccc1` belongs 162 to 164 °C. In the case of `CCOC(=O)C(=O)Nc1ccc(CC)cc1[N+](=O)[O-]` it was 110 to 112 °C; in that of `CC(C(=O)N(C)C)n1cc(Cl)c(-c2c(Cl)cccc2Cl)n1` (stereo not drawn), 126 to 128 °C. With `CC(=O)NCCn1nnnc1Sc1ccc([N+](=O)[O-])cc1[N+](=O)[O-]`, the melting point was 197 to 198 °C. `O=C(O)c1ccc2c(CCCCN3CC=C(c4ccccc4)CC3)c[nH]c2c1`: the melting point worked out at 268 °C. To `Cc1nc2n(c(=O)c1CCO)CCCS2` belongs 155 °C; to `COc1ccccc1[C@@]1(O)[C@H](O)CC(c2ccccc2)(c2ccccc2)[C@@H]2CN(C(=O)Cc3c[nH]c4ccccc34)C[C@@H]21` (racemic), 266 °C. In the case of `CCCCCCc1ccc(-c2ncc(C#N)cn2)cc1` it was 86.3 to 87.8 °C; in that of `Cn1cc(O)c(=O)c2ccccc21`, 235 to 240 °C; in that of `O=C(O)c1cc2c(C(F)(F)F)cccc2s1`, 178 to 179 °C.

In turn, `CCCCN1CCN2c3ccc(C)cc3C(c3ccco3)=[N+]([O-])CC2C1` (stereo not drawn) registered a melting point of 104 to 106 °C. In the case of `CCOCc1nc2cnc3cccnc3c2n1Cc1ccccc1` it was 118 to 119 °C; in that of `CC(=O)OCC1SC(N2CCc3ccccc32)C(OC(C)=O)C(OC(C)=O)C1OC(C)=O` (stereo not drawn), 163 to 165 °C. To `Cc1cccc(C)c1N1CC(C)N(c2c(C)cccc2C)C1=NC(=O)Oc1ccccc1` (stereo not drawn) belongs 165 to 166 °C; to `CCOC(=O)c1c(O)nc(SC(C)C)n1C(C)C`, 97 to 98 °C. In the case of `CCOc1cc(Cl)ccc1Cn1nc(OC(C)C)cc1CCCOc1c(CC(=O)O)cccc1OC` it was 98 to 99 °C; in that of `O=C(NCc1ccccc1Cl)c1ccccc1CN1C(=O)C2(COc3cc4c(cc32)CCO4)c2ccccc21` (stereo not drawn), 148 to 150 °C. `Cc1cc(C)cc(S(=O)(=O)c2cccc(F)c2C#N)c1`: the melting point is 167 to 168 °C. To `COc1cc2c(cc1OC)CC(O)(CC(=O)O)CC2` (stereo not drawn) belongs 100 to 102 °C; to `CCN(CC)CCNC(=O)N1CCCC(S(=O)(=O)c2ccc(OCCOC)cc2)C1` (stereo not drawn), 98 to 99 °C. In the case of `CCn1c2ccccc2c2c3c(c(-c4ccccc4Cl)cc21)C(=O)NC3O` (stereo not drawn) it was 225 to 228 °C. Regarding `CC1(C)N=C(S)N=C(NC(=O)c2ccccc2)N1`, the melting point is 176 to 178 °C. To `CC(=O)N1CCC(C(=O)N2CC[C@@H](N(C)C(=O)c3ccc(C(F)(F)F)cc3)[C@H](c3ccc(Cl)c(Cl)c3)C2)CC1` belongs 122 °C; to `CC(=N)Nc1cccc(O)c1`, 115 to 118 °C; to `CNc1nc(OCc2ccccc2)ccc1[N+](=O)[O-]`, 149 °C. In the case of `CN(C)S(=O)(=O)CCCOc1ccc2ncnn2n1` it was 151 to 153 °C. To `COCCOC/C(=C\S(=O)(=O)c1ccccc1)C(=O)OC(C)(C)C` belongs 46 to 48 °C; to `CCOC(=O)c1ccc2[nH]c3c(c2c1)CC(N(C)C)CC3` (stereo not drawn), 188 to 190 °C; to `CCN1c2cscc2CNc2ccccc21`, 85 to 87 °C. In turn, `COc1ccccc1Sc1ccc(C=O)c(Cl)c1Cl` gave a melting point of 137 to 139 °C. To `N[C@@H]1C[C@H](C2CCCCC2)c2ccccc2NC1=O` (relative stereo) belongs 96 to 98 °C. To `C[C@H]1N(C(=O)c2ccc(C(F)(F)F)cc2)CC(=O)O[C@@]1(Cn1cncn1)c1ccc(C(F)(F)F)cc1` (relative stereo) belongs 189 to 190 °C. In the case of `CC(=O)N1CCN(Cc2ccc(CCn3cnc4cc(-c5ccc(Cl)cc5)sc4c3=O)cc2)C(=O)C1` it was 204 to 207 °C; in that of `O=C1Cn2ccnc2-c2ccccc2N1`, 265 to 266 °C. Turning to `Nc1nc(Cl)cc(CCl)n1`, the melting point fell in the range of 126 to 128 °C. In turn, `CN(C)c1ccc2[nH]c3c([N+](=O)[O-])ccc(Cl)c3c(=O)c2c1` returned a melting point of over 300 °C. Turning to `CCOc1ccc(-c2cc(C(F)(F)F)n3ncc(-c4cccnc4)c3n2)cc1C(F)(F)F`, the melting point was found to be 178 °C.

Source of the values: a melting point compilation (Tetko et al.; mined from patent text by program, amines drawn as free bases though some values may be those of a salt).
